Experimental data from ChEMBL document CHEMBL3758122, “Multitarget opioid ligands in pain relief: New players in an old game” (Eur J Med Chem, 2016).
Starred links: 1 amine or outer side, 2 acyl side, 3 side chain; linkers in the order of their positions; H or OH if unused. Positions of bridges follow the written chain, without caps; N, C: chain ends. Non-standard residues stand in square brackets, D forms with d. Residues, ends and D or L forms follow the SMILES beside them. *: point of attachment. Dmt = Cc1cc(O)cc(C)c1C[C@H](N)C(=O)O; Tic = O=C(O)[C@@H]1Cc2ccccc2CN1; dTic = O=C(O)[C@H]1Cc2ccccc2CN1; NHBn = c1ccc(CN*)cc1; CH2 = C([*:1])[*:2]; NHPh = c1ccc(N*)cc1

Legend:
[1] = target: T1, Kappa-type opioid receptor (Homo sapiens, UniProt P41145); test: Binding affinity to kappa opioid receptor (unknown origin)
T1 sequence (P41145 whole entry): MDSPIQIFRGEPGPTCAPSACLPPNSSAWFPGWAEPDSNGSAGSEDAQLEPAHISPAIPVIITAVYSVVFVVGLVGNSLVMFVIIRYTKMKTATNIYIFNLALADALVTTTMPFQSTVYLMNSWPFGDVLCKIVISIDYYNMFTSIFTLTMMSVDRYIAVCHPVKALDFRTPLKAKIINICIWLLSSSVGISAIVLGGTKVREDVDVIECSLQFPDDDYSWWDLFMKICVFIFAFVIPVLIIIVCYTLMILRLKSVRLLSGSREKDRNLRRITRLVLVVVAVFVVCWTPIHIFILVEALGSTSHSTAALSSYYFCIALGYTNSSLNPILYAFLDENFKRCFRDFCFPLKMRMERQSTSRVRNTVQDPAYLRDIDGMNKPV

[2] = target: T2, Mu-type opioid receptor (Homo sapiens, UniProt P35372); test: Agonist activity at human mu opioid receptor expressed in CHO cells by [35S]GTP-gammaS binding assay
T2 sequence (P35372 whole entry): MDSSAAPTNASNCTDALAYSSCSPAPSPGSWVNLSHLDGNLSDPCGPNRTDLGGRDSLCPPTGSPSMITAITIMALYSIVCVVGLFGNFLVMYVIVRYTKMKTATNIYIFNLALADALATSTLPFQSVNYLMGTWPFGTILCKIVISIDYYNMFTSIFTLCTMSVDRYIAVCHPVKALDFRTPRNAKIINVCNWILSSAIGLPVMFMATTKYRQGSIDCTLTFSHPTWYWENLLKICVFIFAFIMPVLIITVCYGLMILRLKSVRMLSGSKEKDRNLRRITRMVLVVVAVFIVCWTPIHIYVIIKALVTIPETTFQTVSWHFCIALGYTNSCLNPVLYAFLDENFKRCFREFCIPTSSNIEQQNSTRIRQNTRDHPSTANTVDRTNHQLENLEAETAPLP

[3] = target: T2, Mu-type opioid receptor; test: Displacement of [3H]DAMGO from human mu opioid receptor expressed in CHO cell membrane; format: cell membranes
[4] = target: T3, Delta-type opioid receptor (Homo sapiens, UniProt P41143); test: Displacement of [3H]naltrindole from human delta opioid receptor expressed in CHO cell membrane; format: cell membranes
T3 sequence (P41143 whole entry): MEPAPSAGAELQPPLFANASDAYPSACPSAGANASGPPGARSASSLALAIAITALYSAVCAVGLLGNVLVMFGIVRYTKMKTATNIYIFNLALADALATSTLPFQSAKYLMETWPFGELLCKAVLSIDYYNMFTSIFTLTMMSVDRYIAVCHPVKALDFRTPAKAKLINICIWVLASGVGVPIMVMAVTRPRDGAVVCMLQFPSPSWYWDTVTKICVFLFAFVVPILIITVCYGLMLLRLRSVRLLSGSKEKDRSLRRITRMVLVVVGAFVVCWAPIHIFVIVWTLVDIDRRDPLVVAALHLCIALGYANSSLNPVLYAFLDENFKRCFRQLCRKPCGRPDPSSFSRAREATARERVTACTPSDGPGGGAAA

[5] = target: T3, Delta-type opioid receptor; test: Antagonist activity at human delta opioid receptor expressed in CHO cell membrane assessed as inhibition of […]-induced [35S]-GTP-gammaS binding; format: cell membranes
[6] = target: T2, Mu-type opioid receptor; test: Binding affinity at mu opioid receptor (unknown origin)
[7] = target: T3, Delta-type opioid receptor; test: Binding affinity at delta opioid receptor (unknown origin)
[8] = target: T1, Kappa-type opioid receptor; test: Displacement of [3H]U69,593 from human kappa opioid receptor expressed in CHO cell membrane; format: cell membranes
[9] = target: T2, Mu-type opioid receptor; test: Partial agonist activity at mu opioid receptor (unknown origin) expressed in CHO cell membrane assessed as stimulation of [35S]GTP-gamma-S binding; format: cell membranes
[10] = system: Mus musculus; test: Toxicity in sc dosed Kunming mouse assessed as sedation by rotarod test; format: organism-based; conditions: in vivo
[11] = system: Mus musculus; test: Antinociceptive activity in sc dosed Kunming mouse measured after 30 mins by hot plate test; format: functional; conditions: 0.5 h
[12] = target: T2, Mu-type opioid receptor; test: Displacement of [3H]D-Ala2,N-Me-Phe4,Gly5-ol]-Enkephalin from human mu opioid receptor expressed in CHO cell membrane; format: cell membranes
[13] = target: T2, Mu-type opioid receptor; test: Agonist activity at mu opioid receptor (unknown origin) assessed as [35S]GTPgammaS binding by cell based assay; format: functional
[14] = target: T3, Delta-type opioid receptor; test: Partial agonist activity at delta opioid receptor (unknown origin) assessed as [35S]GTPgammaS binding by cell based assay
[15] = target: Mu-type opioid receptor (Rattus norvegicus) (UniProt P33535); test: (§1) Agonist activity at rat mu opioid receptor transfected in C6 cells by [35S]GTPgammaS binding assay; format: functional, cell-based
Chain of Mu-type opioid receptor (Rattus norvegicus) (P33535 whole entry): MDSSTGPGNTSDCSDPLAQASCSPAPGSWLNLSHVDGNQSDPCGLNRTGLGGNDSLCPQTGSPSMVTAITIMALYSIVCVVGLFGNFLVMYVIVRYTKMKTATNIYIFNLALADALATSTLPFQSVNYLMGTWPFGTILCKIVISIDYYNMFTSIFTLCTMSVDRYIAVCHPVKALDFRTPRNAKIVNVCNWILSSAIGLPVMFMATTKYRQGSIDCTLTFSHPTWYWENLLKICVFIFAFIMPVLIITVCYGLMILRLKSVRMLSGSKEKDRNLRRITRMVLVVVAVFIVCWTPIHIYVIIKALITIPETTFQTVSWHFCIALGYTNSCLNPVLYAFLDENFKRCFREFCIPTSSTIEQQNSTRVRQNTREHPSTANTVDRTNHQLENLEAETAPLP

[16] = target: Delta-type opioid receptor (Rattus norvegicus) (UniProt P33533); test: (§2) Agonist activity at rat delta opioid receptor transfected in C6 cells by [35S]GTPgammaS binding assay; format: functional, cell-based
Chain of Delta-type opioid receptor (Rattus norvegicus) (P33533 whole entry): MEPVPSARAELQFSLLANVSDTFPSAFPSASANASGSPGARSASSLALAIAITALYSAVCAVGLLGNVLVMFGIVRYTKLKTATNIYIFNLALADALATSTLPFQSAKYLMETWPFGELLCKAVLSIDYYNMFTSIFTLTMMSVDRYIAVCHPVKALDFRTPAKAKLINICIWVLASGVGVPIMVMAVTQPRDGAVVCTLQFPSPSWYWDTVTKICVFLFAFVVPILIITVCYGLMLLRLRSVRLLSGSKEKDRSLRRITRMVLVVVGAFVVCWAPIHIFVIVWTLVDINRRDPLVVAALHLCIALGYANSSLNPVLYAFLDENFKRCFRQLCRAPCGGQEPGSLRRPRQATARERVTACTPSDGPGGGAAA

[17] = target: T3, Delta-type opioid receptor; test: Displacement of [3H]DPDPE from human delta opioid receptor expressed in CHO cells; format: cell-based
[18] = system: Mus musculus; test: Antinociceptive activity in sc dosed Swiss Webster mouse measured after 30 mins by hot plate test; format: functional; conditions: 0.5 h
[19] = system: Rattus norvegicus; test: Analgesic activity in sc dosed rat by tail flick test; format: functional
[20] = target: T1, Kappa-type opioid receptor; test: Agonist activity at kappa opioid receptor (unknown origin) assessed as [35S]GTPgammaS binding by cell based assay; format: functional
[21] = target: T3, Delta-type opioid receptor; test: Partial agonist activity at delta opioid receptor (unknown origin) assessed as inhibition of adenylyl cyclase activity
[22] = target: Delta-type opioid receptor (Mus musculus) (UniProt P32300); test: Antagonist activity at delta-opioid receptor in mouse vas deferens; format: tissue-based
Chain of Delta-type opioid receptor (Mus musculus) (P32300 whole entry): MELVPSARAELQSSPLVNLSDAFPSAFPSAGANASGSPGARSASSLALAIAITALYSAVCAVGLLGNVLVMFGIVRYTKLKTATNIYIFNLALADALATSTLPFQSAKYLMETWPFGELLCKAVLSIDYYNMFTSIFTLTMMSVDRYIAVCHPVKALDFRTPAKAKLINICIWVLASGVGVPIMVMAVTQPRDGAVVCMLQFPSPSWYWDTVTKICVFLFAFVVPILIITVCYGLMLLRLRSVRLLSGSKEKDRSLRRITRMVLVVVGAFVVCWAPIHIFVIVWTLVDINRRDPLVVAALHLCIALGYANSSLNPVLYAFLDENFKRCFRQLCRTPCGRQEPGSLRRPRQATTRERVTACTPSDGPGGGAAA

[23] = target: T3, Delta-type opioid receptor; test: Antagonist activity at human delta opioid receptor expressed in CHO cell membrane assessed as inhibition of DPDPE-induced [35S]-GTP-gammaS binding; format: cell membranes
[24] = system: Mus musculus; test: Antinociceptive activity in icv dosed mouse after 20 mins by tail flick test; format: functional
[25] = target: T4, Delta-type opioid receptor (Mus musculus, UniProt P32300); test: Agonist activity at delta-opioid receptor in mouse vas deferens; format: tissue-based
T4 sequence (P32300 whole entry): as above

[26] = target: T4, Delta-type opioid receptor; test: Antagonist activity at delta-opioid receptor in mouse vas deferens assessed as inhibition of DPDPE-induced inhibition of electrically induced twitches; format: tissue-based; conditions: read-out: pA2 (converted)
[27] = target: Mu-type opioid receptor (Cavia porcellus, UniProt P97266); test: Agonist activity at mu-opioid receptor in guinea pig ileum assessed as inhibition of electrically induced twitches; format: tissue-based
Chain of Mu-type opioid receptor (Cavia porcellus, UniProt P97266) (P97266 whole entry): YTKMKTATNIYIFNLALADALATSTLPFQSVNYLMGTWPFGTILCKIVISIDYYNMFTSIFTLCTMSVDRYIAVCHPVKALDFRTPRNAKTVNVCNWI

[28] = target: T3, Delta-type opioid receptor; test: Displacement of [3H]DPN from human delta opioid receptor expressed in CHO cells by liquid scintillation counting; format: cell-based
[29] = target: T2, Mu-type opioid receptor; test: Displacement of [3H]DPN from human mu opioid receptor expressed in CHO cells by liquid scintillation counting; format: cell-based
[30] = target: Kappa-type opioid receptor (Rattus norvegicus, UniProt P34975); test: Displacement of [3H]DAMGO from kappa opioid receptor in albino Sprague-Dawley rat after 90 mins by liquid scintillation
Chain of Kappa-type opioid receptor (Rattus norvegicus, UniProt P34975) (P34975 whole entry): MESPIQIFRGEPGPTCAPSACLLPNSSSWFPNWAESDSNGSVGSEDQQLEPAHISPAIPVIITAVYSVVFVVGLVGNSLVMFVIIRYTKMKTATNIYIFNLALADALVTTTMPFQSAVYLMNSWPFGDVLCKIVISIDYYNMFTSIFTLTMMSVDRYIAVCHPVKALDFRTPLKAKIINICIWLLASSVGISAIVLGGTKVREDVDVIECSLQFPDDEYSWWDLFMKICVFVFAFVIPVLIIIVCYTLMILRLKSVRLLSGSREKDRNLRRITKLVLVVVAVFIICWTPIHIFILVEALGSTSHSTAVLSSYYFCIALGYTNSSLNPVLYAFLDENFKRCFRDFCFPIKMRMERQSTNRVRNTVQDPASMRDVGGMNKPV

[31] = target: T3, Delta-type opioid receptor; test: Antagonist activity at […] delta opioid receptor in CD1 mouse assessed as electrically induced twitches
[32] = target: Mu-type opioid receptor (Rattus norvegicus, UniProt P33535); test: as §1; format: functional, cell-based
Chain of Mu-type opioid receptor (Rattus norvegicus, UniProt P33535) (P33535 whole entry): as the sequence (P33535 whole entry) above

[33] = target: Delta-type opioid receptor (Rattus norvegicus, UniProt P33533); test: as §2; format: functional, cell-based
Chain of Delta-type opioid receptor (Rattus norvegicus, UniProt P33533) (P33533 whole entry): as the sequence (P33533 whole entry) above

[34] = target: T3, Delta-type opioid receptor; test: Agonist activity at human delta-opioid receptor expressed in CHO cells by [35S]GTPgammaS binding assay; format: functional, cell-based
[35] = target: T1, Kappa-type opioid receptor; test: Agonist activity at human kappa opioid receptor expressed in CHO cell membrane by [35S]GTP-gammaS binding assay

Oc1ccc2c(c1)[C@@]13CCCC[C@H]1[C@@H](C2)N(CC1CCC1)CC3 [BUTORPHAN]
Ki [1]: 0.073 nM

Cc1cc(O)cc(C)c1C[C@H](N)C(=O)N1Cc2ccccc2C[C@H]1C(=O)NCC(=O)N1CCc2ccccc2C1
EC50 ([2]; cho): 22 nM
Ki ([3]; cho): 3.3 nM
Ki ([4]; cho): 0.75 nM
IC50 ([5]; cho): 2.3 nM

Cc1cc(O)cc(C)c1C[C@H](N)C(=O)N1Cc2ccccc2C[C@H]1C(=O)N[C@@H](Cc1ccccc1)C(=O)N[C@@H](Cc1ccccc1)C(N)=O (H-[Dmt][Tic]FF-NH2)
Ki [6]: 1.19 nM

O=C1c2ccc(O)cc2[C@@]23CCCC[C@H]2[C@@H]1N(CC1CCCO1)CC3 (stereo not given in full)
Ki [7]: 1 nM
Ki [6]: 0.38 nM
Ki [1]: 0.18 nM

NC(=O)[C@@H]1CSCSC[C@@H](NC(=O)[C@@H](N)Cc2ccc(O)cc2)C(=O)N[C@@H](Cc2ccccc2)C(=O)N[C@@H](Cc2ccccc2)C(=O)N1 (H-Y[dC]FFC-NH2; linker 2-5 via CH2)
Ki [7]: 1.8 nM
Ki [6]: 0.016 nM

Nc1nc2cc3c(cc2s1)CC1[C@@H]2CCCC[C@]32CCN1CC1CC1
Ki [8]: 0.049 nM
EC50 [9]: 73 nM
ED50 [10]: 1.94 mg/kg
ED50 [11]: 1.46 mg/kg
Ki [12]: 1.5 nM

CN1CC[C@]23c4c5ccc(O)c4O[C@@]2(C)c2[nH]c4ccccc4c2C[C@@]3(CCCc2ccccc2)[C@H]1C5
Ki [7]: 1.95 nM
Ki [6]: 10.2 nM
EC50 [13]: 45.1 nM
EC50 [14]: 0.87 nM

Cc1cc(O)cc(C)c1C[C@H](N)C(=O)N1Cc2ccccc2C[C@@H]1C(=O)NCC(=O)N(c1ccccc1)c1ccccc1
EC50 [2]: 4.8 nM
Ki [3]: 1.71 nM
Ki [4]: 0.94 nM
IC50 [5]: 8.3 nM

NC(=O)[C@@H]1CSSC[C@@H](NC(=O)[C@@H](N)Cc2ccc(O)cc2)C(=O)N[C@@H](Cc2ccccc2)C(=O)N[C@@H](Cc2ccccc2)C(=O)N1 (H-Y[dC]FFC-NH2; disulfide 2-5)
Emax [15]: 77%
Emax [16]: 69%

CN1CC[C@]23c4c5ccc(O)c4O[C@@]2(CO)C(=O)CC[C@@]3(O)[C@H]1C5
Ki [17]: 208 nM
EC50 [2]: 35 nM
Ki [3]: 3.2 nM
ED50 [18]: 4.3 mg/kg

C[C@H]1[C@H]2Cc3ccc(O)cc3[C@]1(C)CCN2CCC(=O)Nc1ccccc1
Ki [7]: 29 nM
Ki [6]: 0.83 nM
ED50 [19]: 2.03 mg/kg

NC(=O)[C@H]1CSCSC[C@H](NC(=O)[C@@H](N)Cc2ccc(O)cc2)C(=O)N[C@@H](Cc2ccccc2)C(=O)N[C@@H](Cc2ccc3ccccc3c2)C(=O)N1
Ki [7]: 0.48 nM
Ki [6]: 0.47 nM
Ki [1]: 1.3 nM
Emax [13]: 99%
Emax [20]: 89%
EC50 [21]: 36 nM

N[C@@H](Cc1ccc(O)cc1)C(=O)N1Cc2ccccc2CC1CN[C@@H](Cc1ccccc1)C(=O)NC(CC1CCCCC1)C(=O)O (stereo not given in full)
Ke [22]: 0.175 nM
Ki [7]: 0.259 nM
Ki [6]: 1050 nM

CO[C@@]12CCC(=O)[C@]3(C)Oc4c(O)ccc5c4[C@@]31CCN(C)[C@@H]2C5
Ki [7]: 13.3 nM
Ki [6]: 0.01 nM
Ki [1]: 25.2 nM

CCCC[C@@H]1NC(=O)[C@H](Cc2cccc3ccccc23)NC(=O)[C@@H](NC(=O)[C@@H](N)Cc2ccc(O)cc2)CSSC[C@H](C(=O)O)NC1=O
Emax [15]: 100%
Emax [16]: 100%

Cc1cc(O)cc(C)c1C[C@H](N)C(=O)N1Cc2ccccc2C[C@H]1CN[C@@H](Cc1ccccc1)C(=O)N[C@@H](Cc1ccccc1)C(N)=O
Ki [7]: 0.44 nM
Ki [6]: 0.94 nM

CCCC[C@@H]1NC(=O)[C@H](Cc2cccc3ccccc23)NC(=O)[C@@H](NC(=O)[C@@H](N)Cc2ccc(O)cc2)CSSC[C@H](C(N)=O)NC1=O
Emax [15]: 100%
Emax [16]: 100%

Cc1cc(O)cc(C)c1C[C@H](N)C(=O)N1Cc2ccccc2C[C@@H]1C(=O)NCC(=O)NCc1ccccc1 (H-[Dmt]-[dTic]-Gly-NHBn)
pKb [23]: 9.81

O=C(CCCCCCCCC(=O)Oc1ccc2c(c1)[C@@]13CCCC[C@H]1[C@@H](C2)N(CC1CCC1)CC3)Oc1ccc2c(c1)[C@@]13CCCC[C@H]1[C@@H](C2)N(CC1CCC1)CC3
ED50 [24]: 3 nmol

Cc1cc(O)cc(C)c1C[C@H](N)C(=O)N1Cc2ccccc2C[C@H]1C(=O)NCC(=O)NCc1ccccc1 (H-[Dmt]-[Tic]-Gly-NHBn)
EC50 [25]: 2.57 nM
Kb [26]: 0.708 nM
EC50 [27]: 31.6 nM
Ki [7]: 0.16 nM
Ki [28]: 0.151 nM
Ki [29]: 16.2 nM
Ki [6]: 0.031 nM

CN1CC[C@]23c4c5ccc(O)c4O[C@H]2[C@@H](O)C=C[C@H]3[C@H]1C5 [MORPHINE]
ED50 [19]: 2.7 mg/kg

Cc1cc(O)cc(C)c1C[C@H](N)C(=O)N1Cc2ccccc2C[C@H]1C(=O)NCC(=O)Nc1ccccc1 (H-[Dmt]-[Tic]-Gly-NHPh)
Ki [7]: 0.16 nM
Ki [6]: 0.042 nM

C=CCN1C[C@H](C)N([C@@H](c2cccc(O)c2)c2cccc(C(=O)N(C)c3cccc(F)c3)c2)C[C@H]1C
IC50 [27]: 1 nM
Ki [30]: 0.46 nM
IC50 [31]: 3.4 nM

CCCC[C@@H]1NC(=O)[C@H](Cc2cccc3ccccc23)NC(=O)[C@H](NC(=O)[C@@H](N)Cc2ccc(O)cc2)CSSC[C@@H](C(=O)O)NC1=O
EC50 [32]: 5.1 nM
EC50 [33]: 22 nM

CCCC[C@@H]1NC(=O)[C@H](Cc2cccc3ccccc23)NC(=O)[C@H](NC(=O)[C@@H](N)Cc2ccc(O)cc2)CSSC[C@@H](C(N)=O)NC1=O
EC50 [33]: 22 nM

Cc1cc(O)cc(C)c1C[C@H](N)C(=O)N1Cc2ccccc2C[C@@H]1C(=O)NCc1nc2ccccc2[nH]1
EC50 [25]: 0.02 nM
EC50 [34]: 0.0813 nM
Ki [7]: 0.021 nM
Ki [6]: 0.5 nM

O=C(/C=C/C(=O)Oc1ccc2c(c1)[C@@]13CCCC[C@H]1[C@@H](C2)N(CC1CCC1)CC3)Oc1ccc2c(c1)[C@@]13CCCC[C@H]1[C@@H](C2)N(CC1CCC1)CC3
EC50 [35]: 4.3 nM
ED50 [24]: 0.27 nmol
